Values belong to the molecule of their own block, whether it stands above or below them.
How the values were obtained:
Format in all cases: binding
OiMacroD [1] = molecular target: T1, OiMacroD (Oceanobacillus iheyensis, UniProt Q8EP31); assay: thermal shift, SYPRO Orange; conditions: 50 mM sodium phosphate pH 7.0, 1 mM ligand; without ligand Tm = 41.7 ± 0.2 °C
T1 construct: gene OB2288

OiMacroD [2] = molecular target: T2, OiMacroD (Oceanobacillus iheyensis, UniProt Q8EP31, G37V); assay: X-ray crystal structure, […] Å; conditions: crystal soaked with 20 mM ADPr; active site
T2 construct: gene OB2288
T2 sequence (Q8EP31 entry or part of it G37V): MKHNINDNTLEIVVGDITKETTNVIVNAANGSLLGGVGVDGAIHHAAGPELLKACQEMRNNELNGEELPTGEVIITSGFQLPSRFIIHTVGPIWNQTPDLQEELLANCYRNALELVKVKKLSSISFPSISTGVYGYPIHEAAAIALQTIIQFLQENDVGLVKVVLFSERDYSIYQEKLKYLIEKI

OiMacroD [3] = molecular target: T1, OiMacroD; assay: thermal shift, SYPRO Orange; conditions: 50 mM sodium phosphate pH 7.0, 1 mM ligand; without ligand Tm = 41.7 ± 0.2 °C; remark: listed apart in the source
OiMacroD [4] = molecular target: T1, OiMacroD; assay: X-ray crystal structure, […] Å; conditions: crystal soaked with 20 mM ADPr; active site
OiMacroD [5] = molecular target: T1, OiMacroD; assay: X-ray crystal structure, […] Å; conditions: crystal soaked with 20 mM ADP; active site, two alternative conformations
OiMacroD [6] = molecular target: T1, OiMacroD; assay: thermal shift, SYPRO Orange; conditions: 50 mM sodium phosphate pH 7.0, 1 mM ligand; without ligand Tm = 41.7 ± 0.2 °C; remark: listed apart in the source

T1 sequence (Q8EP31 entry or part of it): as the sequence (Q8EP31 entry or part of it G37V) above, with V37G counted along it

Tm with 1 mM AMP (OiMacroD [1]): 43.3 ± 0.1 °C
SMILES: Nc1ncnc2c1ncn2[C@@H]1O[C@H](COP(=O)(O)O)[C@@H](O)[C@H]1O [AMP]

X-ray crystal structure, 1.35 Å (OiMacroD [2]): OiMacroD G37V (ADPr) (5LAU) | Tm with 1 mM ADPr (OiMacroD [3]): 47.8 ± 0.1 °C | X-ray crystal structure, 1.77 Å (OiMacroD [4]): OiMacroD-ADPr (5L9K)
SMILES: Nc1ncnc2c1ncn2[C@@H]1O[C@H](COP(=O)(O)OP(=O)(O)OC[C@H]2OC(O)[C@H](O)[C@@H]2O)[C@@H](O)[C@H]1O (stereo partly drawn) [ADP-ribose]

X-ray crystal structure, 1.75 Å (OiMacroD [5]): OiMacroD-ADP (5L9Q) | Tm with 1 mM ADP (OiMacroD [6]): 44.0 ± 0.2 °C
SMILES: Nc1ncnc2c1ncn2[C@@H]1O[C@H](COP(=O)(O)OP(=O)(O)O)[C@@H](O)[C@H]1O [ADP]
